Source: ChEMBL document CHEMBL3860089, “Design, synthesis, and biological evaluation of α-hydroxyacyl-AMS inhibitors of amino acid adenylation enzymes” (Bioorg Med Chem Lett, 2016)

Experiments:
[1] = Drug uptake in Mycobacterium smegmatis ATCC 700084 at 100 uM by LC-MS/Ms analysis; assay type: ADME; details: mycolicibacterium smegmatis
[2] = Drug uptake in Bacillus subtilis ATCC 6051 at 100 uM by LC-MS/Ms analysis; assay type: ADME
[3] = Drug uptake in Escherichia coli ATCC 25922 at 100 uM by LC-MS/Ms analysis; assay type: ADME; details: escherichia coli atcc 25922, 100 µM
[4] = Inhibition of aminoacyl tRNA synthetase in T7 coupled rabbit reticulocyte lysate assessed as reduction in transcription/translation of luciferase template DNA propagated in Escherichia coli DH5alpha after 90 mins; parameters: species or system Oryctolagus cuniculus
[5] = molecular target: T1, Yersiniabactin biosynthetic protein (Yersinia pestis, UniProt A0A2S9PH42)
T1 sequence (A0A2S9PH42 whole entry): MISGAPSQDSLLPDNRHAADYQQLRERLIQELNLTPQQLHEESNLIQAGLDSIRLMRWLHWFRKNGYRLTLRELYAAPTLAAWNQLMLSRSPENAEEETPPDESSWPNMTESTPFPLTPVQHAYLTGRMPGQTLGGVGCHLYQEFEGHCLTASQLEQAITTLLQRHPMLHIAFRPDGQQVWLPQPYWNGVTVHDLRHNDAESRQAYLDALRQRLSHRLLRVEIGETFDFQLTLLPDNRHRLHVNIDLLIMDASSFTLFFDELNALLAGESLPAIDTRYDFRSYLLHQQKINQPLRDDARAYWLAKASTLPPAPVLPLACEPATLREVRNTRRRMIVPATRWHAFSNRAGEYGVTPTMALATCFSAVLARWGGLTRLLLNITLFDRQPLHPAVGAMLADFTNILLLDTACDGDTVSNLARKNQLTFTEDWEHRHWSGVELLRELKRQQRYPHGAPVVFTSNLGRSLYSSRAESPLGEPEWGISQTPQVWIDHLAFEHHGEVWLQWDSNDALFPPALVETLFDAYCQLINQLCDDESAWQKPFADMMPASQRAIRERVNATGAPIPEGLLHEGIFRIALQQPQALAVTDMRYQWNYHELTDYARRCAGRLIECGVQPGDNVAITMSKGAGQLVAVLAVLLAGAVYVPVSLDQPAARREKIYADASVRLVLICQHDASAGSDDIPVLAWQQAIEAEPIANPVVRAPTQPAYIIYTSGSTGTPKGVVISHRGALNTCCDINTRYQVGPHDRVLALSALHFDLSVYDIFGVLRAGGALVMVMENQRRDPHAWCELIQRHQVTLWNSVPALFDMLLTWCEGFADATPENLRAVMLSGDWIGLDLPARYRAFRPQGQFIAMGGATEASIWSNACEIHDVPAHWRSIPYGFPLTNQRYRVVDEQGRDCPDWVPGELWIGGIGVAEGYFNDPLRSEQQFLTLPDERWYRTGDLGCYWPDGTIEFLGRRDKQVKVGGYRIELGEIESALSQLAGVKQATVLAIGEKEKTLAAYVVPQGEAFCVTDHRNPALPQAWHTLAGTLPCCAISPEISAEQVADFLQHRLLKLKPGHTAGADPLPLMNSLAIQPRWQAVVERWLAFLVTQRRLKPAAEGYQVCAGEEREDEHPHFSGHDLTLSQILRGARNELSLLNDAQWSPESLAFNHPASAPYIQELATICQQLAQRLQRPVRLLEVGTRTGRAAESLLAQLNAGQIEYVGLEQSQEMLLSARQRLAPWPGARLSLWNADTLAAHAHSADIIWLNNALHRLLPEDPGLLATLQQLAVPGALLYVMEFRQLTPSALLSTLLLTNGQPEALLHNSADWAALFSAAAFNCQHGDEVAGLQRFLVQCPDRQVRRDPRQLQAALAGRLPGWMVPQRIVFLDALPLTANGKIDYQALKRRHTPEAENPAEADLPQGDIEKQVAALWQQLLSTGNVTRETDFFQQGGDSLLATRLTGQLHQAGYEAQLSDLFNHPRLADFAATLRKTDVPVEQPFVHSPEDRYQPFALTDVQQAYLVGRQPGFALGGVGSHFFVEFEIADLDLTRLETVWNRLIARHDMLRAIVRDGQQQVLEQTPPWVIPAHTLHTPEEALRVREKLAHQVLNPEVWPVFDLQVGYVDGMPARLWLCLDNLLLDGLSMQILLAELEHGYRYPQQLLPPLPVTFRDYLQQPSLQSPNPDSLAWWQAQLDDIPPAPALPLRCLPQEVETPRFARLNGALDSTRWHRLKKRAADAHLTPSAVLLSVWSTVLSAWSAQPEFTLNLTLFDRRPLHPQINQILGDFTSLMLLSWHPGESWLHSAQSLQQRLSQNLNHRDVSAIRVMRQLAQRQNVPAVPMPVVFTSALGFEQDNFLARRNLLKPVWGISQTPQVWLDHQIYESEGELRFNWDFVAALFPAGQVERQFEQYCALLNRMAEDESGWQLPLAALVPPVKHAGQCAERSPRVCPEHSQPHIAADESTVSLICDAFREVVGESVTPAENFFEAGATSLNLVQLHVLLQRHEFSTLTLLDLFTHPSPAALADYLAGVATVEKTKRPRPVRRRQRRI

[6] = molecular target: T1, Yersiniabactin biosynthetic protein; details: read-out: Ki(app)

C[C@H](O)C(=O)NS(=O)(=O)OC[C@H]1O[C@@H](n2cnc3c(N)ncnc32)[C@H](O)[C@@H]1O
Drug uptake [1]: 28 to 53 µM
Drug uptake [2]: 28 to 53 µM
Drug uptake [3]: 28 to 53 µM
IC50 [4]: 166 µM
IC50 [5]: > 1000 µM

Nc1ncnc2c1nc1n2[C@@H]2O[C@H](COS(=O)(=O)NC(=O)[C@@H](O)CCC1)[C@@H](O)[C@H]2O
IC50 [4]: > 250 µM
IC50 [5]: > 1000 µM

Nc1ncnc2c1ncn2[C@@H]1O[C@H](COS(=O)(=O)NC(=O)[C@@H](O)CS)[C@@H](O)[C@H]1O
IC50 [4]: 222 µM
IC50 [5]: 16.5 µM

Nc1ncnc2c1ncn2[C@@H]1O[C@H](COS(=O)(=O)NC(=O)[C@@H](N)CS)[C@@H](O)[C@H]1O
Ki [6]: 0.24 µM
IC50 [4]: 3.27 µM
IC50 [5]: 0.04 µM

Nc1ncnc2c1nc1n2[C@@H]2O[C@H](COS(=O)(=O)NC(=O)[C@@H](N)CCC1)[C@@H](O)[C@H]2O
Ki [6]: 1.7 µM
IC50 [4]: > 250 µM
IC50 [5]: 0.34 µM

C[C@H](N)C(=O)NS(=O)(=O)OC[C@H]1O[C@@H](n2cnc3c(N)ncnc32)[C@H](O)[C@@H]1O [ALASA]
Drug uptake ([1]; BLD = below limit of detection): Bld
Ki [6]: 2.5 µM
Drug uptake ([2]; BLD = below limit of detection): Bld
Drug uptake ([3]; BLD = below limit of detection): Bld
IC50 [4]: 0.118 to 0.16 µM
IC50 [5]: 1.15 µM
